Data published in patent publication US9133143B2, “(3-fluoro-2-hydroxy)propyl-functionalized aryl derivatives or pharmaceutically acceptable salts thereof, method for preparing same, and pharmaceutical composition containing same as active ingredient for the diagnosis or treatment of neurodegenerative brain diseases” (FUTURECHEM CO., LTD., priority 2009, dated 2015).

Experiments:
[1] = biological target: T1, β-Amyloid (Aβ1-42) fibrils (Homo sapiens, UniProt P05067); test: Test of inhibitory binding ability against [125I]TZDM on β-amyloid fibrils; conditions: Aβ1-42 fibrils 10 nM, [125I]TZDM 0.05 nM, room temperature 3 hours; read-out: Ki, binding affinity (Ki) for [125I]TZDM (48)
T1 construct: β-Amyloid peptide (Aβ1-42, Bachem, 1 mg); purchased Bachem
Experimental: β-Amyloid peptide (Aβ1-42, Bachem, 1 mg) was completely dissolved in DMSO (1 mL) and then mixed well after adding phosphate buffer (pH 7.4, 9 mL). β-Amyloid fibrils produced by incubating at 37° C. for 60 minutes were distributed into e-tubes, 0.5 mL each, and stored in a refrigerator at −80° C.
10% ethanol (0.850 mL) was placed in a 12 mm×75 mm borosilicate test tube. […] Then, after adding [^125I]TZDM (48) (50 μL, final reaction concentration=0.05 nM), the resulting mixture was subjected to incubation at room temperature for 3 hours. 3 Hours later, after separating [^125I]TZDM (48) bound to the β-amyloid (Aβ1-42) fibrils from unbound [^125I]TZDM (48) using a cell harvester, gamma radiation was measured using a gamma counter. 2 μM ThT was used for testing of non-specific binding.

[2] = Test of in vivo distribution of F-18-labeled compounds (concentration in brain, passage through blood-brain barrier); design: Concentration in brain of rats, At 2 minutes ([2 min]) / Concentration in brain of rats, At 30 minutes ([30 min]): unit not given here; conditions: SD rats; for Concentration in brain of rats, Highest ([peak]) / Time of highest concentration in brain (in parentheses): F-18-labeled compound; for Initial brain inflow: at 2 minutes; for [peak]/[30 min] / [2 min]/[30 min]: ratio of brain concentrations; for [2 min]/[30 min]: value smaller than 1 = cannot pass the blood-brain barrier well
Experimental: In order to test the passing of the aryl derivative with the (3-fluoro-2-hydroxy)propyl group according to the present disclosure through the blood-brain barrier, the following experiment was carried out.
After administering the F-18-labeled aryl derivatives prepared in Examples 10 to 13 or 2-(4-(N-monomethyl)aminophenyl)-6-(3-[^18F]fluoropropoxy)benzothiophene with no hydroxyl group, as control, to SD rats, peak concentration in the brain and concentrations at 2 minutes ([2 min]) and 30 minutes ([30 min]) were measured and pharmacokinetic properties were quantitatively compared.
A larger value indicates easier passage through the blood-brain barrier.

T1 sequence (P05067 672-713 limits assumed): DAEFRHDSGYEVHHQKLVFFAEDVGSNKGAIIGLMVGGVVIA

| Structure (SMILES) | Ki [1] | Concentration in brain of rats, At 2 minutes ([2 min]) [2] | Concentration in brain of rats, At 30 minutes ([30 min]) [2] | Concentration in brain of rats, Highest ([peak]) [2] | Time of highest concentration in brain (in parentheses) [2] | [peak]/[30 min] [2] | other results |
| --- | --- | --- | --- | --- | --- | --- | --- |
| CNc1ccc(-c2cc3ccc(OCC(O)CF)cc3s2)cc1 (racemic) [Example 1, 2-[4-(N-monomethyl)aminophenyl]-6-[(R/S)-3-fluoro-2-hydroxypropoxy]benzothiophene] | 1.2 nM | – | – | – | – | – | – |
| CNc1ccc(-c2cc3ccc(OCC(O)C[18F])cc3s2)cn1 (racemic) [Example 10, 2-[2-(N-monomethyl)aminopyridin-5-yl]-6-[(R/S)-3-[^18F]fluoro-2-hydroxypropoxy]benzothiophene] | – | 16.5 | 2.2 | 22.4 | 30 s | 10.3 | [2 min]/[30 min] value relative to that of the compound with no hydroxyl group at the propyl residue [2]: 8.1 times; Initial brain inflow [2]: very rapid; [2 min]/[30 min] [2]: 7.5 |
| CNc1cccc(-c2nc3ccc(OCC(O)C[18F])cc3s2)c1 (racemic) [Example 12, 2-[3-(N-monomethyl)aminophenyl]-6-[(R/S)-3-[^18F]fluoro-2-hydroxypropoxy]benzothiazole] | – | 15.7 | 2.9 | 22.6 | 25 s | 7.7 | – |
| CNc1ccc(-c2nc3ccc(OCC(O)C[18F])cc3s2)cn1 (racemic) [Example 13, 2-[2-(N-monomethyl)aminopyridin-5-yl]-6-[(R/S)-3-[^18F]fluoro-2-hydroxypropoxy]benzothiazole] | – | 6.5 | 1.0 | 11.1 | 45 s | 10.8 | – |
| CNc1ccc(-c2cc3ccc(OCCC[18F])cc3s2)cc1 [Control, 2-(4-(N-monomethyl)aminophenyl)-6-(3-[^18F]fluoropropoxy)benzothiophene, reference compound] | – | 2.02 | 2.18 | – | – | – | Initial brain inflow [2]: very low; [2 min]/[30 min] [2]: 0.93; [2 min]/[30 min] ([2]; listed as 2-[4-(N-monomethyl)aminophenyl]-6-β-[^18F]fluoropropoxy)benzothiophene): less than or equal to 1 |

Continued, in another order:

| Ki [1] | Structure (SMILES) | Concentration in brain of rats, At 2 minutes ([2 min]) [2] | Concentration in brain of rats, At 30 minutes ([30 min]) [2] | Concentration in brain of rats, Highest ([peak]) [2] | Time of highest concentration in brain (in parentheses) [2] | [peak]/[30 min] [2] | other results |
| --- | --- | --- | --- | --- | --- | --- | --- |
| 0.49 nM | CNc1ccc(-c2cc3ccc(OCC(O)CF)cc3s2)cn1 (racemic) [Example 2, 2-[2-(N-monomethyl)aminopyridin-5-yl]-6-[(R/S)-3-fluoro-2-hydroxypropoxy]benzothiophene] | – | – | – | – | – | – |
| 0.42 nM | CNc1ccc(-c2cc3ccc(OCC(O)CF)cc3s2)nn1 (racemic) [Example 5, 2-[3-(N-monomethyl)aminopyridazin-6-yl]-6-[(R/S)-3-fluoro-2-hydroxypropoxy]benzothiophene] | – | – | – | – | – | – |
| 1.06 nM | CNc1ccc(-c2nc3ccc(OCC(O)CF)cc3s2)cc1 (racemic) [Example 6, 2-[4-(N-monomethyl)aminophenyl]-6-[(R/S)-3-fluoro-2-hydroxypropoxy]benzothiazole] | – | – | – | – | – | – |
| 0.16 nM | CNc1ccc(-c2nc3ccc(OC[C@H](O)CF)cc3s2)cn1 [Example 8, 2-[2-(N-monomethyl)aminopyridin-5-yl]-6-[(S)-3-fluoro-2-hydroxypropoxy]benzothiazole] | – | – | – | – | – | – |
